The test has as its system MV-4-11 cells. Description: Gene expression microarray analysis (Affymetrix PrimeView) and GSEA. The format is cell-based, human. Also noted: RFU PODN (11730768_x_at) / Fold change /veh PODN (11730768_x_at) / RFU LINC00158 (11744669_a_at) / Fold change /veh LINC00158 (11744669_a_at) / RFU DUSP10 (11751237_a_at) / Fold change /veh DUSP10 (11751237_a_at) / RFU ID3 (11757404_x_at) / Fold change /veh ID3 (11757404_x_at) / RFU PLEKHG5 (11737974_s_at) / Fold change /veh PLEKHG5 (11737974_s_at) / RFU LRRC4B (11730491_at) / Fold change /veh LRRC4B (11730491_at) / RFU GIMAP4 (11747438_a_at) / Fold change /veh GIMAP4 (11747438_a_at) / RFU KRT8 (11758183_x_at) / Fold change /veh KRT8 (11758183_x_at) / RFU CNN1 (11734310_a_at) / Fold change /veh CNN1 (11734310_a_at) / RFU VPS37D (11726825_at) / Fold change /veh VPS37D (11726825_at) / RFU C10orf10 (11716522_x_at) / Fold change /veh C10orf10 (11716522_x_at) / RFU KIR2DL2 /// KIR2DL4 /// KIR2DL5A /// KIR2DL5B /// KIR2DS1 /// KIR2DS2 /// KIR2DS3 /// KIR2DS4 /// KIR3DL3 /// KIR3DL3 /// KIR3DS1 (11738374_at) / Fold change /veh KIR2DL2 /// KIR2DL4 /// KIR2DL5A /// KIR2DL5B /// KIR2DS1 /// KIR2DS2 /// KIR2DS3 /// KIR2DS4 /// KIR3DL3 /// KIR3DL3 /// KIR3DS1 (11738374_at) / RFU C1QL1 (11718748_at) / Fold change /veh C1QL1 (11718748_at) / RFU TMPRSS4 (11747572_a_at) / Fold change /veh TMPRSS4 (11747572_a_at) / RFU HAMP (11756126_x_at) / Fold change /veh HAMP (11756126_x_at) / RFU RNFT2 (11725882_a_at) / Fold change /veh RNFT2 (11725882_a_at) / RFU NR4A2 (11747474_a_at) / Fold change /veh NR4A2 (11747474_a_at) / RFU ABCC12 (11746883_a_at) / Fold change /veh ABCC12 (11746883_a_at) / RFU TMEM136 (11760407_x_at) / Fold change /veh TMEM136 (11760407_x_at) / RFU CLDN22 /// WWC2 (11732394_at) / Fold change /veh CLDN22 /// WWC2 (11732394_at) / RFU HLA-DPB1 (11760878_x_at) / Fold change /veh HLA-DPB1 (11760878_x_at) / RFU SPINT1 (11716480_a_at) / Fold change /veh SPINT1 (11716480_a_at) / RFU GAP43 (11754022_s_at) / Fold change /veh GAP43 (11754022_s_at) / RFU A4GNT (11735810_at) / Fold change /veh A4GNT (11735810_at) / RFU PRB3 (11715151_x_at) / Fold change /veh PRB3 (11715151_x_at) / RFU TUBB4B (11761932_at) / Fold change /veh TUBB4B (11761932_at) / RFU CAPN14 (11732068_a_at) / Fold change /veh CAPN14 (11732068_a_at) / RFU TMCC2 (11721928_a_at) / Fold change /veh TMCC2 (11721928_a_at) / RFU IRGQ (11745062_a_at) / Fold change /veh IRGQ (11745062_a_at) / RFU FAM174B (11720279_a_at) / Fold change /veh FAM174B (11720279_a_at) / RFU TMPRSS4 (11748680_a_at) / Fold change /veh TMPRSS4 (11748680_a_at) / RFU FAM212B (11763350_a_at) / Fold change /veh FAM212B (11763350_a_at) / RFU PLEKHG5 (11743358_a_at) / Fold change /veh PLEKHG5 (11743358_a_at) / RFU ZSCAN30 (11745921_a_at) / Fold change /veh ZSCAN30 (11745921_a_at) / RFU CMKLR1 (11741424_a_at) / Fold change /veh CMKLR1 (11741424_a_at) / RFU LOC101060620 /// MAPK8IP1 (11723275_at) / Fold change /veh LOC101060620 /// MAPK8IP1 (11723275_at) / RFU SPTSSB (11747773_x_at) / Fold change /veh SPTSSB (11747773_x_at) / RFU PRSS12 (11739890_at) / Fold change /veh PRSS12 (11739890_at) / RFU BIN1 (11741810_x_at) / Fold change /veh BIN1 (11741810_x_at) / RFU WNT11 (11732464_a_at) / Fold change /veh WNT11 (11732464_a_at) / RFU C10orf10 (11716521_a_at) / Fold change /veh C10orf10 (11716521_a_at) / RFU C5orf56 (11738089_at) / Fold change /veh C5orf56 (11738089_at) / RFU CYB561 (11721691_x_at) / Fold change /veh CYB561 (11721691_x_at) / RFU ANKRD19P (11752326_a_at) / Fold change /veh ANKRD19P (11752326_a_at) / RFU OR2T12 /// OR2T33 /// OR2T8 (11738714_s_at) / Fold change /veh OR2T12 /// OR2T33 /// OR2T8 (11738714_s_at) / RFU VCAN (11748164_a_at) / Fold change /veh VCAN (11748164_a_at) / RFU JSRP1 (11732532_at) / Fold change /veh JSRP1 (11732532_at) / RFU KRTAP10-11 (11738290_x_at) / Fold change /veh KRTAP10-11 (11738290_x_at) / RFU MYO3A (11730013_a_at) / Fold change /veh MYO3A (11730013_a_at) / RFU EBF3 (11725865_a_at) / Fold change /veh EBF3 (11725865_a_at) / RFU CAMK2N1 (11719241_x_at) / Fold change /veh CAMK2N1 (11719241_x_at) / RFU C5orf56 (11738088_a_at) / Fold change /veh C5orf56 (11738088_a_at) / RFU OLFML3 (11715873_a_at) / Fold change /veh OLFML3 (11715873_a_at) / RFU LOC100653217 /// NTM (11731650_a_at) / Fold change /veh LOC100653217 /// NTM (11731650_a_at) / RFU MAPK11 (11762145_a_at) / Fold change /veh MAPK11 (11762145_a_at) / RFU FIZ1 (11724087_x_at) / Fold change /veh FIZ1 (11724087_x_at) / RFU OASL (11726364_x_at) / Fold change /veh OASL (11726364_x_at) / RFU SOX15 (11748057_x_at) / Fold change /veh SOX15 (11748057_x_at) / RFU CD79A (11719716_a_at) / Fold change /veh CD79A (11719716_a_at) / RFU HIST1H1D (11736915_at) / Fold change /veh HIST1H1D (11736915_at) / RFU CASKIN2 (11723855_a_at) / Fold change /veh CASKIN2 (11723855_a_at) / RFU LOC730098 (11760151_x_at) / Fold change /veh LOC730098 (11760151_x_at) / RFU OR4N2 (11742367_at) / Fold change /veh OR4N2 (11742367_at) / RFU PRRT2 (11749266_a_at) / Fold change /veh PRRT2 (11749266_a_at) / RFU SNX32 (11753110_a_at) / Fold change /veh SNX32 (11753110_a_at) / RFU CDHR5 (11726645_a_at) / Fold change /veh CDHR5 (11726645_a_at) / RFU RCAN1 (11760418_a_at) / Fold change /veh RCAN1 (11760418_a_at) / RFU FAM167A (11723789_a_at) / Fold change /veh FAM167A (11723789_a_at) / RFU FAM26E (11764081_at) / Fold change /veh FAM26E (11764081_at) / RFU ISYNA1 (11749810_s_at) / Fold change /veh ISYNA1 (11749810_s_at) / RFU ACY1 (11761880_at) / Fold change /veh ACY1 (11761880_at) / RFU 11764098_at / Fold change /veh 11764098_at / RFU SAMD14 (11745864_x_at) / Fold change /veh SAMD14 (11745864_x_at) / RFU NPB (11741838_a_at) / Fold change /veh NPB (11741838_a_at) / RFU TMPRSS6 (11731388_a_at) / Fold change /veh TMPRSS6 (11731388_a_at) / RFU KRTAP10-2 (11738614_at) / Fold change /veh KRTAP10-2 (11738614_at) / RFU ARHGAP8 /// PRR5-ARHGAP8 (11727945_x_at) / Fold change /veh ARHGAP8 /// PRR5-ARHGAP8 (11727945_x_at) / RFU KRTAP5-7 /// NADSYN1 (11734609_at) / Fold change /veh KRTAP5-7 /// NADSYN1 (11734609_at) / RFU RASL12 (11751679_a_at) / Fold change /veh RASL12 (11751679_a_at) / RFU CDKN2B (11736163_a_at) / Fold change /veh CDKN2B (11736163_a_at) / RFU PRF1 (11729649_at) / Fold change /veh PRF1 (11729649_at) / RFU, ZNF638 /// ZNF638-IT1 / Fold change vs veh, ZNF638 /// ZNF638-IT1 / RFU, PANK3 / Fold change vs veh, PANK3 / RFU, SH3YL1 / Fold change vs veh, SH3YL1 / RFU, ZEB2 / Fold change vs veh, ZEB2 / RFU, NRIP1 / Fold change vs veh, NRIP1 / RFU, PTTG1IP / Fold change vs veh, PTTG1IP / RFU, CAPN2 / Fold change vs veh, CAPN2 / RFU, MED14 / Fold change vs veh, MED14 / RFU, SNORA58 / Fold change vs veh, SNORA58 / RFU, C1orf63 / Fold change vs veh, C1orf63 / RFU, LRRFIP1 / Fold change vs veh, LRRFIP1 / RFU, NDUFAF7 / Fold change vs veh, NDUFAF7 / RFU, SLC12A2 / Fold change vs veh, SLC12A2 / RFU, IBTK / Fold change vs veh, IBTK / RFU, ESF1 / Fold change vs veh, ESF1 / Fold change vs veh, TMEM50B / RFU, TAOK1 / Fold change vs veh, TAOK1 / RFU, ACBD3 / Fold change vs veh, ACBD3 / RFU, TMA16 / Fold change vs veh, TMA16 / RFU, RWDD3 / Fold change vs veh, RWDD3 / RFU, BCAT1 / Fold change vs veh, BCAT1 / RFU, EDEM3 / Fold change vs veh, EDEM3 / RFU, TMEM33 / Fold change vs veh, TMEM33 / RFU, WDR75 / Fold change vs veh, WDR75 / RFU, AHCTF1 / Fold change vs veh, AHCTF1 / RFU, TFRC / Fold change vs veh, TFRC / RFU, ZDHHC17 / Fold change vs veh, ZDHHC17 / RFU, NOM1 / Fold change vs veh, NOM1 / RFU, ARL8B / Fold change vs veh, ARL8B / RFU, ZBTB11 / Fold change vs veh, ZBTB11 / RFU, TAMM41 / Fold change vs veh, TAMM41 / RFU, KIAA1704 /// LOC100996395 / Fold change vs veh, KIAA1704 /// LOC100996395 / RFU, ING1 / Fold change vs veh, ING1 / RFU, TRMT61B / Fold change vs veh, TRMT61B / RFU, FUBP3 / Fold change vs veh, FUBP3 / RFU, TP53 / Fold change vs veh, TP53 / RFU, TNKS2 / Fold change vs veh, TNKS2 / RFU, ZFP14 / Fold change vs veh, ZFP14 / RFU, ACTR2 / Fold change vs veh, ACTR2 / RFU, PPP3R1 / Fold change vs veh, PPP3R1 / RFU, PIK3R1 / Fold change vs veh, PIK3R1 / RFU, HNRNPA1 / Fold change vs veh, HNRNPA1 / RFU, RNF170 / Fold change vs veh, RNF170 / RFU, ZNF28 / Fold change vs veh, ZNF28 / RFU, RNGTT / Fold change vs veh, RNGTT / RFU, OGT / Fold change vs veh, OGT / RFU, BRD1 / Fold change vs veh, BRD1 / RFU, MARS / Fold change vs veh, MARS / RFU, ZNF655 / Fold change vs veh, ZNF655 / RFU, FAHD1 / Fold change vs veh, FAHD1 / RFU, BDP1 / Fold change vs veh, BDP1 / RFU, LRRCC1 / Fold change vs veh, LRRCC1 / RFU, ARID1A / Fold change vs veh, ARID1A / RFU, ZNF146 / Fold change vs veh, ZNF146 / RFU, ZNF330 / Fold change vs veh, ZNF330 / RFU, GPN3 / Fold change vs veh, GPN3 / RFU, C9orf123 / Fold change vs veh, C9orf123 / RFU, N4BP2L2 / Fold change vs veh, N4BP2L2 / RFU, ARFIP1 / Fold change vs veh, ARFIP1 / RFU, FAM179B / Fold change vs veh, FAM179B / RFU, BCL10 / Fold change vs veh, BCL10 / RFU, UHRF1BP1L / Fold change vs veh, UHRF1BP1L / RFU, BET1 / Fold change vs veh, BET1 / RFU, CNOT2 / Fold change vs veh, CNOT2 / RFU, ZNF268 / Fold change vs veh, ZNF268 / Fold change vs veh, ZNF507 / RFU, DGCR2 / Fold change vs veh, DGCR2 / RFU, WDSUB1 / Fold change vs veh, WDSUB1 / Fold change vs veh, HSP90B1 /// MIR3652 / RFU, ADSS / Fold change vs veh, ADSS / RFU, GK / Fold change vs veh, GK / RFU, ZNF148 / Fold change vs veh, ZNF148 / RFU, TAF9 / Fold change vs veh, TAF9 / RFU, SLC1A5 / Fold change vs veh, SLC1A5 / RFU, SLMO2 / Fold change vs veh, SLMO2 / RFU, ABCC4 / Fold change vs veh, ABCC4 / RFU, LOC101060439 /// RAP1B / Fold change vs veh, LOC101060439 /// RAP1B / RFU, RFX7 / Fold change vs veh, RFX7 / RFU, GTPBP10 / Fold change vs veh, GTPBP10 / RFU, CNEP1R1 / Fold change vs veh, CNEP1R1 / RFU, BIVM-ERCC5 /// ERCC5 / Fold change vs veh, BIVM-ERCC5 /// ERCC5 / RFU, ILF3 / Fold change vs veh, ILF3 / RFU 11762660_at / Fold change /veh 11762660_at / RFU VCAN (11757783_s_at) / Fold change /veh VCAN (11757783_s_at) / RFU DDX43 (11728927_at) / Fold change /veh DDX43 (11728927_at) / RFU KRT8 (11758188_x_at) / Fold change /veh KRT8 (11758188_x_at) / RFU NKD1 (11759106_at) / Fold change /veh NKD1 (11759106_at) / RFU SRD5A1 (11742802_a_at) / Fold change /veh SRD5A1 (11742802_a_at) / RFU TPSAB1 /// TPSB2 (11721975_s_at) / Fold change /veh TPSAB1 /// TPSB2 (11721975_s_at) / RFU GSTM3 (11746129_a_at) / Fold change /veh GSTM3 (11746129_a_at) / RFU IL23R (11737362_x_at) / Fold change /veh IL23R (11737362_x_at) / RFU TMEM51 (11727254_a_at) / Fold change /veh TMEM51 (11727254_a_at) / RFU PIWIL2 (11732686_x_at) / Fold change /veh PIWIL2 (11732686_x_at) / RFU ORM1 (11744905_x_at) / Fold change /veh ORM1 (11744905_x_at) / RFU CCDC152 (11743942_at) / Fold change /veh CCDC152 (11743942_at) / RFU ECM1 (11717891_a_at) / Fold change /veh ECM1 (11717891_a_at) / RFU IL23R (11748794_a_at) / Fold change /veh IL23R (11748794_a_at) / RFU TNFAIP8L3 (11732012_x_at) / Fold change /veh TNFAIP8L3 (11732012_x_at) / RFU MBOAT4 (11741988_at) / Fold change /veh MBOAT4 (11741988_at) / RFU 11764193_at / Fold change /veh 11764193_at / RFU TMEM53 (11763286_at) / Fold change /veh TMEM53 (11763286_at) / RFU MAGEB2 (11727129_at) / Fold change /veh MAGEB2 (11727129_at) / RFU TMEM200A (11744735_a_at) / Fold change /veh TMEM200A (11744735_a_at) / RFU CCDC152 (11751479_a_at) / Fold change /veh CCDC152 (11751479_a_at) / RFU FAM211A (11726209_a_at) / Fold change /veh FAM211A (11726209_a_at) / RFU RGS16 (11746705_a_at) / Fold change /veh RGS16 (11746705_a_at) / RFU VCAN (11755009_s_at) / Fold change /veh VCAN (11755009_s_at) / RFU RHOB (11743442_s_at) / Fold change /veh RHOB (11743442_s_at) / RFU RGS16 (11720943_a_at) / Fold change /veh RGS16 (11720943_a_at) / RFU RGS16 (11720944_at) / Fold change /veh RGS16 (11720944_at) / RFU, VPS4B / Fold change vs veh, VPS4B / RFU, CREB1 / Fold change vs veh, CREB1 / RFU, DNAJC13 / Fold change vs veh, DNAJC13 / RFU, GNAQ / Fold change vs veh, GNAQ / RFU, CDK5R1 / Fold change vs veh, CDK5R1 / RFU, ZRANB3 / Fold change vs veh, ZRANB3 / RFU, CUL4A / Fold change vs veh, CUL4A / RFU, CCNY / Fold change vs veh, CCNY / RFU, UFL1 / Fold change vs veh, UFL1 / RFU, COG3 / Fold change vs veh, COG3 / RFU, DIAPH2 / Fold change vs veh, DIAPH2 / RFU, SKA2 / Fold change vs veh, SKA2 / RFU, AFF3 / Fold change vs veh, AFF3 / RFU, LMF1 / Fold change vs veh, LMF1 / RFU, IPO11 / Fold change vs veh, IPO11 / RFU, DFFB / Fold change vs veh, DFFB / RFU, FOXP1 / Fold change vs veh, FOXP1 / RFU, CARD8 / Fold change vs veh, CARD8 / RFU, STRN3 / Fold change vs veh, STRN3 / RFU, ADK / Fold change vs veh, ADK / RFU, RASSF2 / Fold change vs veh, RASSF2 / RFU, WIPF1 / Fold change vs veh, WIPF1 / RFU, LARP1B / Fold change vs veh, LARP1B / RFU, RASA1 / Fold change vs veh, RASA1 / RFU, RB1 / Fold change vs veh, RB1 / RFU, PPFIA1 / Fold change vs veh, PPFIA1 / RFU, MAT2A / Fold change vs veh, MAT2A / RFU, CCT5 / Fold change vs veh, CCT5 / RFU, WDR92 / Fold change vs veh, WDR92 / RFU, CUX1 / Fold change vs veh, CUX1 / RFU, TTC7A / Fold change vs veh, TTC7A / RFU, TMEM135 / Fold change vs veh, TMEM135 / RFU, DEPTOR / Fold change vs veh, DEPTOR / RFU, CPM / Fold change vs veh, CPM / RFU, DNAJB6 / Fold change vs veh, DNAJB6 / RFU, CACNA2D3 / Fold change vs veh, CACNA2D3 / RFU, DTX4 / Fold change vs veh, DTX4 / RFU, TFCP2 / Fold change vs veh, TFCP2 / RFU, GMCL1 /// GMCL1P1 / Fold change vs veh, GMCL1 /// GMCL1P1 / RFU, AEBP2 / Fold change vs veh, AEBP2 / RFU, SNHG1 /// SNORD22 /// SNORD25 /// SNORD26 /// SNORD27 /// SNORD28 /// SNORD29 /// SNORD31 / Fold change vs veh, SNHG1 /// SNORD22 /// SNORD25 /// SNORD26 /// SNORD27 /// SNORD28 /// SNORD29 /// SNORD31 / Fold change (Aza/veh), C12orf56 (ProbeSet 11735607_a_at) / Fold change (ACY-1035/veh), C12orf56 (ProbeSet 11735607_a_at) / Fold change (Aza/veh), FGFR1OP (ProbeSet 11751329_s_at) / Fold change (ACY-1035/veh), FGFR1OP (ProbeSet 11751329_s_at) / Fold change (Aza/veh), VPS36 (ProbeSet 11739960_a_at) / Fold change (ACY-1035/veh), VPS36 (ProbeSet 11739960_a_at) / RFU SYPL1 (11715823_x_at) / Fold change /veh SYPL1 (11715823_x_at) / RFU IGFBP7 (11715501_s_at) / Fold change /veh IGFBP7 (11715501_s_at) / RFU REEP3 (11722064_at) / Fold change /veh REEP3 (11722064_at) / RFU IGLL1 (11728026_x_at) / Fold change /veh IGLL1 (11728026_x_at): dose or concentration left out as unconfirmed. Conditions: gene VPS36; ACY-1035 vs DMSO; LIST F.

Consider `Nc1ccc(-c2cccs2)cc1NC(=O)c1ccc2c(c1)cc(C1CC1)n2CCN1CCOCC1` [ACY-1035], for which the “Fold change (ACY-1035/veh), VPS36 (ProbeSet 11739960_a_at)” value was 0.53.

Source of the values: publication PMC5218480 (PLoS ONE, 2017).
